Assay results from ChEMBL document CHEMBL1130738, “Rational design of boropeptide thrombin inhibitors: beta, beta-dialkyl-phenethylglycine P2 analogs of DuP 714 with greater selectivity over complement factor I and an improved safety profile” (Bioorg Med Chem Lett, 1998).
The source made the active and inactive calls. No cut-off for these calls is given here.

Target: Coagulation factor X (Homo sapiens, UniProt P00742)
Assay: Binding affinity towards coagulation factor Xa.

Sequence of Coagulation factor X (P00742 41-179 limits assumed): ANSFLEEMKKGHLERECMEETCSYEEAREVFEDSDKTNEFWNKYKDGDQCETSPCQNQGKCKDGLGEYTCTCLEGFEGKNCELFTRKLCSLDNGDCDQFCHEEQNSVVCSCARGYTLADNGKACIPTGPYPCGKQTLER
Sequence of Coagulation factor X (P00742 235-488 limits assumed): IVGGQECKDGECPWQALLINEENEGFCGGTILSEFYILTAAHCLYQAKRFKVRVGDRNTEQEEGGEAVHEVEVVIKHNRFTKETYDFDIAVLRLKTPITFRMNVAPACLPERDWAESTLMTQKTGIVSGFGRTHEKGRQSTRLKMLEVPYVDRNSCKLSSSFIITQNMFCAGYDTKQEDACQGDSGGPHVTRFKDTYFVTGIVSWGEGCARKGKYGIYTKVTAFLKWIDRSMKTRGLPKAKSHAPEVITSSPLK

Row | SMILES | Ki [nM]
1 | NCCCCC(NC(=O)CN(CC1(c2ccccc2)CCCC1)C(=O)CCc1ccccc1)B(O)O (stereo not given) | 1390
2 | Cc1cc(C)cc(CCN(CC(=O)NC(CCCNC=N)B(O)O)C(=O)CCc2ccccc2)c1 (stereo not given) | 30

More lines, now with the values ahead:

Row | Ki [nM] | SMILES
3 | 62 | Cc1cc(C)cc(C(C)(C)CN(CC(=O)NC(CCCN=C(N)N)B(O)O)C(=O)CCc2ccccc2)c1 (stereo not given)
4 | 438 | NCCCCC(NC(=O)CN(CC1(c2ccccc2)CC1)C(=O)CCc1ccccc1)B(O)O (stereo not given)
5 | 46 | N=C(N)NCCCC(NC(=O)CN(CC1(c2ccccc2)CC1)C(=O)CCc1ccccc1)B(O)O (stereo not given)

Test system: Rattus norvegicus
Assay: Effect of factor I selectivity on hypotension was evaluated in rats after administration intravenously at a dose(bolus) of 2 umol/kg
Format: functional

Row | SMILES | BP [mmHg]
6 | CC(=O)N[C@H](Cc1ccccc1)C(=O)N1CCC[C@H]1C(=O)N[C@@H](CCCN=C(N)N)B(O)O.Cl | >40

Test system: not listed separately
Assay: Selectivity ratio for binding to factor I (IC50) and thrombin (Ki)

Row | SMILES | Ratio
7 | N/C=N/CCCC(NC(=O)CN(CC1(c2ccccc2)CC1)C(=O)CCc1ccccc1)B(O)O (stereo not given) | 9280
8 | NCCCCC(NC(=O)CN(CC1(c2ccccc2)CCCC1)C(=O)CCc1ccccc1)B(O)O (stereo not given) | 7920
9 | N/C=N/CCCC(NC(=O)CN(CC1(c2ccccc2)CCCC1)C(=O)CCc1ccccc1)B(O)O (stereo not given) | > 16700
10 | CC(C)(CN(CC(=O)NC(CCC/N=C/N)B(O)O)C(=O)CCc1ccccc1)c1ccccc1 (stereo not given) | 5750

Results, then the molecule that gave them:

Row | Ratio | SMILES
11 | < 69 | Cc1cc(C)cc(CCN(CC(=O)NC(CCCN=C(N)N)B(O)O)C(=O)CCc2ccccc2)c1 (stereo not given)
12 | 1080 | Cc1cc(C)cc(CCN(CC(=O)NC(CCC/N=C/N)B(O)O)C(=O)CCc2ccccc2)c1 (stereo not given)
13 | 1070 | Cc1cc(C)cc(C(C)(C)CN(CC(=O)NC(CCCN=C(N)N)B(O)O)C(=O)CCc2ccccc2)c1 (stereo not given)
14 | 10000 | NCCCCC(NC(=O)CN(CC1(c2ccccc2)CC1)C(=O)CCc1ccccc1)B(O)O (stereo not given)
15 | 9000 | N=C(N)NCCCC(NC(=O)CN(CC1(c2ccccc2)CC1)C(=O)CCc1ccccc1)B(O)O (stereo not given)
16 | 3070 | N/C=N/CCCC(NC(=O)CN(CCc1ccccc1)C(=O)CCc1ccccc1)B(O)O (stereo not given)

Test system: Rattus norvegicus
Assay: Alanine transaminase level was measured in rats after administration intravenously at a dose(bolus) of 20 umol/kg
Format: functional, organism-based
Design: unit not given here

Row | SMILES | Level
17 | N/C=N/CCCC(NC(=O)CN(CC1(c2ccccc2)CC1)C(=O)CCc1ccccc1)B(O)O (stereo not given) | 66
18 | NCCCCC(NC(=O)CN(CC1(c2ccccc2)CCCC1)C(=O)CCc1ccccc1)B(O)O (stereo not given) | 66
19 | N/C=N/CCCC(NC(=O)CN(CC1(c2ccccc2)CCCC1)C(=O)CCc1ccccc1)B(O)O (stereo not given) | 60
20 | CC(C)(CN(CC(=O)NC(CCC/N=C/N)B(O)O)C(=O)CCc1ccccc1)c1ccccc1 (stereo not given) | 70

Further lines, results first:

Row | Level | SMILES
21 | 60 | NCCCCC(NC(=O)CN(CC1(c2ccccc2)CC1)C(=O)CCc1ccccc1)B(O)O (stereo not given)
22 | 89 | N=C(N)NCCCC(NC(=O)CN(CC1(c2ccccc2)CC1)C(=O)CCc1ccccc1)B(O)O (stereo not given)
23 | 55 | N/C=N/CCCC(NC(=O)CN(CCc1ccccc1)C(=O)CCc1ccccc1)B(O)O (stereo not given)

Target: Prothrombin (Homo sapiens, UniProt P00734)
Assay: Binding affinity towards thrombin was tested.

Row | SMILES | Ki [nM]
24 | NCCCCC(NC(=O)CN(CC1(c2ccccc2)CCCC1)C(=O)CCc1ccccc1)B(O)O (stereo not given) | 2.4
25 | Cc1cc(C)cc(CCN(CC(=O)NC(CCCNC=N)B(O)O)C(=O)CCc2ccccc2)c1 (stereo not given) | 0.37

The remaining lines, values ahead:

Row | Ki [nM] | SMILES
26 | 0.3 | Cc1cc(C)cc(C(C)(C)CN(CC(=O)NC(CCCN=C(N)N)B(O)O)C(=O)CCc2ccccc2)c1 (stereo not given)
27 | 0.43 | NCCCCC(NC(=O)CN(CC1(c2ccccc2)CC1)C(=O)CCc1ccccc1)B(O)O (stereo not given)
28 | 0.06 | N=C(N)NCCCC(NC(=O)CN(CC1(c2ccccc2)CC1)C(=O)CCc1ccccc1)B(O)O (stereo not given)

Target: Thrombin and coagulation factor X (Homo sapiens) (UniProt P00734+P00742)
Assay: Selectivity ratio for binding to factor Xa (Ki) and thrombin (Ki)
Format: protein assay

Sequence of Thrombin and coagulation factor X (Homo sapiens) (P00742 whole entry, looked up, other chains not shown): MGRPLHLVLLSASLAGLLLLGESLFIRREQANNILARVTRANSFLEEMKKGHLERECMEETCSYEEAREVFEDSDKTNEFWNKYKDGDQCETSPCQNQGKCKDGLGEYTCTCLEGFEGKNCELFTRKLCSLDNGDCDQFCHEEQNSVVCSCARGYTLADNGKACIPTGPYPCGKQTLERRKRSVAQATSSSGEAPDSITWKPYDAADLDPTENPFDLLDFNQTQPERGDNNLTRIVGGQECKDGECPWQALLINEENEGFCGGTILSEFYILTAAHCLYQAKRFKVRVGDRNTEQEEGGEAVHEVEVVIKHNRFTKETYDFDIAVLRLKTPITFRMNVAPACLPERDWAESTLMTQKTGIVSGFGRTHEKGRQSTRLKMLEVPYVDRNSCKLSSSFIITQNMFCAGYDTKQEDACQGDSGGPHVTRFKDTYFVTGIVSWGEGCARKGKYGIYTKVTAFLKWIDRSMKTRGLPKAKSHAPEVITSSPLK

Row | SMILES | Ratio
29 | N/C=N/CCCC(NC(=O)CN(CC1(c2ccccc2)CC1)C(=O)CCc1ccccc1)B(O)O (stereo not given) | 361
30 | NCCCCC(NC(=O)CN(CC1(c2ccccc2)CCCC1)C(=O)CCc1ccccc1)B(O)O (stereo not given) | 579
31 | N/C=N/CCCC(NC(=O)CN(CC1(c2ccccc2)CCCC1)C(=O)CCc1ccccc1)B(O)O (stereo not given) | 210
32 | CC(C)(CN(CC(=O)NC(CCC/N=C/N)B(O)O)C(=O)CCc1ccccc1)c1ccccc1 (stereo not given) | 67

More lines, now with the values ahead:

Row | Ratio | SMILES
33 | 26 | Cc1cc(C)cc(CCN(CC(=O)NC(CCCN=C(N)N)B(O)O)C(=O)CCc2ccccc2)c1 (stereo not given)
34 | 81 | Cc1cc(C)cc(CCN(CC(=O)NC(CCC/N=C/N)B(O)O)C(=O)CCc2ccccc2)c1 (stereo not given)
35 | 207 | Cc1cc(C)cc(C(C)(C)CN(CC(=O)NC(CCCN=C(N)N)B(O)O)C(=O)CCc2ccccc2)c1 (stereo not given)
36 | 1020 | NCCCCC(NC(=O)CN(CC1(c2ccccc2)CC1)C(=O)CCc1ccccc1)B(O)O (stereo not given)
37 | 767 | N=C(N)NCCCC(NC(=O)CN(CC1(c2ccccc2)CC1)C(=O)CCc1ccccc1)B(O)O (stereo not given)
38 | 25 | N/C=N/CCCC(NC(=O)CN(CCc1ccccc1)C(=O)CCc1ccccc1)B(O)O (stereo not given)

Test system: not listed separately
Assay: Inhibition of Coagulation factor I.

Row | SMILES | IC50 [nM]
39 | N/C=N/CCCC(NC(=O)CN(CC1(c2ccccc2)CC1)C(=O)CCc1ccccc1)B(O)O (stereo not given) | 7700
40 | NCCCCC(NC(=O)CN(CC1(c2ccccc2)CCCC1)C(=O)CCc1ccccc1)B(O)O (stereo not given) | 19000
41 | N/C=N/CCCC(NC(=O)CN(CC1(c2ccccc2)CCCC1)C(=O)CCc1ccccc1)B(O)O (stereo not given) | > 50000
42 | CC(C)(CN(CC(=O)NC(CCC/N=C/N)B(O)O)C(=O)CCc1ccccc1)c1ccccc1 (stereo not given) | 6900

Second part, the molecule after the results:

Row | IC50 [nM] | SMILES
43 | 10 | CC(=O)N[C@H](Cc1ccccc1)C(=O)N1CCC[C@H]1C(=O)N[C@@H](CCCN=C(N)N)B(O)O.Cl
44 | < 40 | Cc1cc(C)cc(CCN(CC(=O)NC(CCCN=C(N)N)B(O)O)C(=O)CCc2ccccc2)c1 (stereo not given)
45 | 400 | Cc1cc(C)cc(CCN(CC(=O)NC(CCC/N=C/N)B(O)O)C(=O)CCc2ccccc2)c1 (stereo not given)
46 | 320 | Cc1cc(C)cc(C(C)(C)CN(CC(=O)NC(CCCN=C(N)N)B(O)O)C(=O)CCc2ccccc2)c1 (stereo not given)
47 | 4300 | NCCCCC(NC(=O)CN(CC1(c2ccccc2)CC1)C(=O)CCc1ccccc1)B(O)O (stereo not given)
48 | 540 | N=C(N)NCCCC(NC(=O)CN(CC1(c2ccccc2)CC1)C(=O)CCc1ccccc1)B(O)O (stereo not given)
49 | 2730 | N/C=N/CCCC(NC(=O)CN(CCc1ccccc1)C(=O)CCc1ccccc1)B(O)O (stereo not given)

Test system: Rattus norvegicus
Assay: Effect of factor I selectivity on hypotension was evaluated in rats after administration intravenously at a dose(bolus) of 20umol/Kg, activity expressed as drop in blood pressure; No effect
Format: functional, organism-based

Row | SMILES | BP
50 | N=C(N)NCCCC(NC(=O)CN(CC1(c2ccccc2)CC1)C(=O)CCc1ccccc1)B(O)O (stereo not given) | inactive
